# Experimental data from paper PMC2678021 (Cancer research, 2009).
# Assays:
# [1] = biological target: Hck (Homo sapiens, UniProt P08631); assay: In vitro kinase assay, Hck; assay type: biochemical; details: read-out: IC50 Hck, Table 1, triplicate or quadruplicate
# [2] = biological target: Src F278H (Gallus gallus, UniProt P00523, F278H); assay: In vitro kinase assay, c-Src F278H kinase domain; assay type: biochemical; details: read-out: IC50 Src F278H; Table 2; kinase domain construct
# [3] = biological target: Src E280V (Gallus gallus, UniProt P00523, E280V); assay: In vitro kinase assay, c-Src E280V kinase domain; assay type: biochemical; details: read-out: IC50 Src E280V; Table 2; kinase domain construct
# [4] = biological target: Src F382V (Gallus gallus, UniProt P00523, Y382V); assay: In vitro kinase assay, c-Src 382V kinase domain; assay type: biochemical; details: read-out: IC50 Src F382V; Table 2; kinase domain construct
# [5] = biological target: Src T338I (Gallus gallus, UniProt P00523, T338I); assay: In vitro kinase assay, c-Src T338I kinase domain; assay type: biochemical; details: read-out: IC50 Src T338I; Table 2; kinase domain construct
# [6] = test system: parental Ba/F3 cells; assay: Growth of parental Ba/F3 control cells; assay type: cell-based; details: 48 hours, media containing IL-3; up to highest concentration tested (5 μM)
# [7] = test system: BCR-ABL-induced phosphorylation of CrkL; assay: BCR-ABL-induced phosphorylation of CrkL in Ba/F3 cells; assay type: cell-based; details: Ba/F3 cells expressing native and mutant isoforms of BCR-ABL; data not shown
# Chain of Hck (P08631 whole entry, species assumed, the tested form may be a part): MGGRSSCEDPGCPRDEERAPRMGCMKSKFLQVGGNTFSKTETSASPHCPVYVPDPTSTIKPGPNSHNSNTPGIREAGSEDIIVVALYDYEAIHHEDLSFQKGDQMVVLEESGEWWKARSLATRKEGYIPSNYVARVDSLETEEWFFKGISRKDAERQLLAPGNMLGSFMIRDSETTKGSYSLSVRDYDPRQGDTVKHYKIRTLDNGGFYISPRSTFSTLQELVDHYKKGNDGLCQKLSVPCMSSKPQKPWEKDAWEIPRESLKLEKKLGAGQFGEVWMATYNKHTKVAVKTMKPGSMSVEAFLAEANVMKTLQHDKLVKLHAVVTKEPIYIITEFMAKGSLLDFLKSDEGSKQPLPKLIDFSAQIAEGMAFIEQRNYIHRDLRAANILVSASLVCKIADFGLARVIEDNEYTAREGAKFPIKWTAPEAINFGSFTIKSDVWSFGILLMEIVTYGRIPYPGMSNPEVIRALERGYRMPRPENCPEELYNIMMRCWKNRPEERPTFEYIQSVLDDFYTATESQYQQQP
compound,measurement,setting,value
COc1ccc(Nc2ncnc(-c3cccnc3Nc3cc(NC(=O)c4ccc(CN5CCN(C)CC5)cc4)ccc3C)n2)cc1 [DSA8],IC50,[1],6.6 ± 2.3 nM
same,IC50,[2],7 ± 2 nM
same,IC50,[3],4 ± 1.2 nM
same,IC50,[4],4.4 ± 1.7 nM
same,IC50,[5],18 ± 6 nM
same,Growth of parental Ba/F3 control cells,[6],minimally affected
same,BCR-ABL-induced phosphorylation of CrkL,[7],block
